Reference: ChEMBL document CHEMBL1201862, “PubChem BioAssay data set” (2004)
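Values below derive from 48-hour exposures of cells grown in 96-well plates, with endpoints linearly interpolated between the two concentrations bracketing the appropriate inhibition level. GI50 = concentration required for 50% inhibition of growth.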 Calls of active or inactive are those of the source. No stated cut-off is given here; in the data, active = GI50 up to about 1.1 µM and inactive = higher.

Legend:
Experiment in all cases: DTP human tumour cell line panel, 48 h
Hs-578T = test system: Hs-578T
SK-MEL-28 = test system: SK-MEL-28
MDA-MB-231 = test system: MDA-MB-231
NCI-H226 = test system: NCI-H226
OVCAR-3 = test system: OVCAR-3
MOLT-4 = test system: MOLT-4
CCRF-CEM = test system: CCRF-CEM
SF-268 = test system: SF-268
OVCAR-4 = test system: OVCAR-4
DU-145 = test system: DU-145
786-0 = test system: 786-0
KM12 = test system: KM12
HOP-62 = test system: HOP-62
SR = test system: SR
HOP-92 = test system: HOP-92
A498 = test system: A498
SF-295 = test system: SF-295
SW-620 = test system: SW-620
HCC 2998 = test system: HCC 2998
SN12C = test system: SN12C

`CCCC(=O)Nc1cc(C(=O)N2C[C@@H]3C[C@]34C2=CC(=O)c2[nH]cc(C)c24)n(COC)c1` was tested, and the GI50 (Hs-578T) was 14.5 µM (inactive), the GI50 (SK-MEL-28) was 7.48 µM (inactive) and the GI50 (MDA-MB-231) was 8.53 µM (inactive). For the same compound, the GI50 (NCI-H226) was 11.2 µM (inactive), the GI50 (OVCAR-3) was 6.81 µM (inactive) and the GI50 (MOLT-4) was 0.807 µM (active). The GI50 (CCRF-CEM) was 0.711 µM (active), the GI50 (SF-268) was 1.48 µM (inactive) and the GI50 (OVCAR-4) was 8.02 µM (inactive). For the same compound, the GI50 (DU-145) was 2.54 µM (inactive), the GI50 (786-0) was 5.47 µM (inactive) and the GI50 (KM12) was 8.85 µM (inactive). The GI50 (HOP-62) was 14 µM (inactive), the GI50 (SR) was 0.566 µM (active) and the GI50 (HOP-92) was 1.4 µM (inactive). For the same compound, the GI50 (A498) was 10 µM (inactive), the GI50 (SF-295) was 19.9 µM (inactive) and the GI50 (SW-620) was 1.62 µM (inactive). The GI50 (HCC 2998) was 3.28 µM (inactive) and the GI50 (SN12C) was 10.6 µM (inactive).
